“And” between values parts separate entries of the source, which are not always exact repeats. Equal values may be shown once. Read-outs that look alike come from different tables or passages of the source.
Columns and labels:
[1] = biological target: T1, cloned hERG channels stably expressed in HEK cells (Homo sapiens, UniProt Q12809); experiment: hERG current inhibition, electrophysiology
Histamine (H1) = Histamine (H1) (Homo sapiens, UniProt P35367); experiment: Histamine (H1) Binding Activity (Table I)
Histamine (H1), sequence (P35367 whole entry): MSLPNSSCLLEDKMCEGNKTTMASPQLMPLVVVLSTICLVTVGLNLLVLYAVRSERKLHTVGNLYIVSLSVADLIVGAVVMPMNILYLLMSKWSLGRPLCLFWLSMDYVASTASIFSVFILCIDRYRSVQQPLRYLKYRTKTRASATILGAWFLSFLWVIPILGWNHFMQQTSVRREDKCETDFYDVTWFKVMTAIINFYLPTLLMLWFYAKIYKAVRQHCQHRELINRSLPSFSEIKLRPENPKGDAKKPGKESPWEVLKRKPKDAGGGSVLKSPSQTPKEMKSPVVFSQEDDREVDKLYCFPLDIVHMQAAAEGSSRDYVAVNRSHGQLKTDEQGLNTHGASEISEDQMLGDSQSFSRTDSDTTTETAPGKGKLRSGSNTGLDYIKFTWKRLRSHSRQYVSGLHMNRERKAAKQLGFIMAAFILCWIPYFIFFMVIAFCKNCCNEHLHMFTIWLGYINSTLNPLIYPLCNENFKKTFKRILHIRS

[2] = Blood-brain barrier penetration, brain:plasma ratio after tail vein injection; conditions: for Fold change (vs DPH): brain concentration, adjusted for DPH molar dose twice that of conjugates; for Kp at 1 h / concentration at 1 h: rat, intravenous; for Kp at 1 h: brain and plasma
Protocol: The four compounds were tested following intravenous injection to the tail vein in rats.
After ensuring a single rat remained viable following a test dose, the rats (4 per condition) were dosed by tail vein injection and were sacrificed one hour later. Blood was collected by cardiac puncture, and brain tissue was collected. Plasma was prepared and brain tissue homogenized to enable quantitation of drug content by LC-MS/MS.
Concentrations of each compound were determined and brain:plasma ratios calculated accordingly.

[3] = system: histamine-induced wheal and flare; experiment: Wheal and flare further study, intravenous infusion; assay type: in vivo, rats; conditions: for antihistamine efficacy (wheal size): IV infusion, rats
Protocol: Briefly, rats received a continuous infusion via the jugular vein catheter for 60 minutes. […] Sixty minutes after the start of the infusion period, the rats were given four (4) interdermal (ID) injections of histamine ([…] in saline; dose 50 μL at 10 μg/rat). […] Twenty minutes after the histamine injections a caliper (Fowler Sylvac Ultra-Cal Mark III) was used to measure the wheal and flare (the diameter of the blue area). Two measurements of the diameter of the blue area at the site of histamine injection were made at 90 degrees from one another. […] Blood samples collected via cardiac puncture were used for diphenhydramine quantitation. The blood samples were placed in vacutainer tubes containing K2 EDTA. The rats were exsanguinated and the brain was rinsed in ice cold saline, wrapped in foil and frozen. The brain and the plasma samples were analyzed for drug content.

[4] = Pharmacokinetics and oral bioavailability in rats; assay type: in vivo; conditions: for half-life: read-out: T ½ (converted); for Vd: read-out: Vss; for bioavailability: read-out: F (oral bioavailability)
Protocol: For oral doses, 5 mg/kg if DPH-equivalent were used. […] Animals were dosed in triplicate by bolus injection to the femoral vein (IV) or oral gavage (PO), and whole blood was collected from the carotid artery from all animals at the appropriate time points for preparation of plasma samples. Quantitation of test article in plasma was performed by LC-MS/MS.

in vitro = conditions: human, hepatocytes
[5] = biological target: human recombinant H1 histamine receptors (Homo sapiens, UniProt P35367); experiment: biochemical
human recombinant H1 histamine receptors, sequence (P35367 whole entry): as above
Protocol: (Caliper Life Sciences, Hopkinton, Mass.). […] This study was performed using duplicate samples per data point (n=2).

[6] = biological target: T1, cloned hERG channels stably expressed in HEK cells
Solubility = assay type: physicochemical; conditions: Table I
intact rat brain = conditions: in vivo, 30 seconds, 20 μM
[7] = system: histamine-induced wheal and flare response; assay type: in vivo; conditions: for percent decrease in the wheal response (change in wheal size): 20 minute time-point, 0.1-0.3 mg/kg dose range
Protocol: Wheal and flare (erythema) experiments were performed in rats in order to measure in vivo activity of PEG-diphenhydramine. Intradermal injection of histamine produces a “wheal and flare” response in the skin as a result of histamine-induced mast cell degranulation, which is prevented by treatment with effective antihistamines.
Histamine was prepared from histamine diphosphate salt at 1 mg/mL (3.26 mM) in PBS, and was administered by intradermal injection 2.5 minutes after IV injection of the test article to the tail vein. At 5, 10, 20, 30 and 60 minutes post-injection, wheal sizes were measured using calipers and areas calculated (width×length, mm^2). Flare responses were measured by eye, and were graded on a scoring system of 1 (least significant)-5 (most severe).

hepatocytes = experiment: Hepatocyte metabolism, dog
rat hepatocyte = experiment: Rat hepatocyte incubation
human hepatocytes = experiment: Metabolic stability in human hepatocytes; conditions: for metabolic breakdown / hepatic intrinsic clearance compared with diphenhydramine: human, hepatocytes
guinea pig hearts [8] = experiment: In vitro safety pharmacology, guinea pig hearts; conditions: rat and guinea pig preparations responded similarly
guinea pig hearts [9] = system: guinea pig hearts
[10] = system: spontaneously beating rat hearts; experiment: In vitro safety pharmacology, spontaneously beating rat hearts
Source text: The objective of this study was to determine the potential effects of escalating concentrations of conjugates on electrophysiological (PQ, QRS, RR, QT, QTc), and mechanical (dLVP/dtmax and dLVP/dtmin) properties in spontaneously beating rat hearts.

[11] = rat, plasma, IV, 1 mg/kg DPH-equivalent
[12] = rat, plasma, IV, 1 mg/kg DPH-equivalent, read-out: Cmax
[13] = rat, plasma, oral 5 mg/kg vs IV 1 mg/kg
[14] = rat, plasma, oral, 5 mg/kg DPH-equivalent
[15] = rat, plasma, oral, 5 mg/kg DPH-equivalent, read-out: Cmax
[16] = rat, plasma, oral, 5 mg/kg DPH-equivalent, read-out: Tmax
[17] = Ki ratio, repeated assay (asterisk), n=3
[18] = repeated assay (asterisk), n=3 samples per data point
[19] = one hour after tail vein injection, rats

T1 sequence (Q12809 whole entry): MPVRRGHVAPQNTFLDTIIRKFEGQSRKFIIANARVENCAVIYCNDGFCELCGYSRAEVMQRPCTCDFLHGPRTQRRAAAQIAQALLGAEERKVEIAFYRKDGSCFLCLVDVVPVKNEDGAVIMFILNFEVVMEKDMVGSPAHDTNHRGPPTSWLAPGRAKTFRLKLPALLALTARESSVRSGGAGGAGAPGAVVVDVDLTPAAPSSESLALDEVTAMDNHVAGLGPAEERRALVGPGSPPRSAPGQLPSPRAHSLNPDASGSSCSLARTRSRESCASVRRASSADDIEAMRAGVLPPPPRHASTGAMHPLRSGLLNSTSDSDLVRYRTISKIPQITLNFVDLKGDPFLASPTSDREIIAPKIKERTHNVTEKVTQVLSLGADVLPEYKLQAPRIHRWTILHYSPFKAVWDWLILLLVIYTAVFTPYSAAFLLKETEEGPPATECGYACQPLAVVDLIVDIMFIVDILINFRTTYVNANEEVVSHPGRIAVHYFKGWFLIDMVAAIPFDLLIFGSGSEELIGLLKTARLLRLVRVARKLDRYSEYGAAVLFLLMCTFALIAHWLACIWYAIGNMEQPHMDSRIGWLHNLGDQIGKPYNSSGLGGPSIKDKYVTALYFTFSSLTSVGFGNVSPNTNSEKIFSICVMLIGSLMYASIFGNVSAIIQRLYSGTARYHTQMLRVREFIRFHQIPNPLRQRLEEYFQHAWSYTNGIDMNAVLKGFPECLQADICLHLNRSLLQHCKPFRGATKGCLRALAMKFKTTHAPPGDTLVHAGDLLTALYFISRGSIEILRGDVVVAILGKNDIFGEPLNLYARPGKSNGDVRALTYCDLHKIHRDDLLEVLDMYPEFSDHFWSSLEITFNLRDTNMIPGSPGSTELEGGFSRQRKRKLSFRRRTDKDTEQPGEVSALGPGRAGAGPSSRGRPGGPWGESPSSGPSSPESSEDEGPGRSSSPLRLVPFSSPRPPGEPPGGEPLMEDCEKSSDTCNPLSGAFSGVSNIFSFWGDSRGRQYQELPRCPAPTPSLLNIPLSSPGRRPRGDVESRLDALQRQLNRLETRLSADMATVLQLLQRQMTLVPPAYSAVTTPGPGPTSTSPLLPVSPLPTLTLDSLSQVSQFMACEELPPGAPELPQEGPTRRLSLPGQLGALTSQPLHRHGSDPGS

In the case of COCCOCCOCCOCCOCCOCCOCCN(C)CCOC(c1ccccc1)c1ccccc1 [mPEG(7)-N-Diphenhydramine, mPEG7-N-diphenhydramine], the IC50 [1] is reported as 13000 nM, the IC50 (Histamine (H1)) is reported as 1730 nM and the “Fold change (vs DPH)” value [2] is reported as 26. The Kp at 1 h [2] was 0.2 to 1, the concentration at 1 h ([2]; brain) was 106 ± 27.1 ng/g and the concentration at 1 h ([2]; plasma) was 545 ± 57.9 ng/mL. The “antihistamine efficacy (wheal size)” value [3] was “no efficacy in concentration range tested”, the AUC(0-inf) [4, 11] was 410 ng·h/mL and the clearance [4, 11] was 78.4 mL/min/kg. For the same compound, the Cmax [4, 12] was 882 ng/mL, the half-life [4, 11] was 25.8 min and the Vd [4, 11] was 2.07 L/kg. For the same compound, the bioavailability [4, 13] was 1.3%, the AUC(0-inf) [4, 14] was 26.6 ng·h/mL and the Cmax [4, 15] was 41.3 ng/mL. The half-life [4, 14] was 28.2 min, the Tmax [4, 16] was 15 min and the half-life (in vitro) was 88.4 min. The Fold vs parent [5] was 20.1 and 28.7, the Ki [5] was 605 nM and 454 nM and the IC50 fold lower [6] was 4 fold.
In the case of COCCOCCOCCN1CCN(C(c2ccccc2)c2ccc(Cl)cc2)CC1 (stereo not drawn) [PEG1 -Hydroxyzine, mPEG1-Hydroxyzine], the IC50 (Histamine (H1); read-out: IC50) is reported as 70.3 nM and the Solubility (Solubility) is reported as “soluble”.
With COCCOCCOCCOCCOCCOCCN(CCOC(c1ccccc1)c1ccccc1)CCOC(c1ccccc1)c1ccccc1 [mPEG6-N-(Diphenhydramine)2, mPEGn-N-(diphenhydramine)2] the IC50 (Histamine (H1); read-out: IC50) was 6500 nM.
COCCOCCOCCOCCOCCOCCNCCOC(c1ccccc1)c1ccccc1 [mPEG(6)-NH-Diphenhydramine, mPEG6-NH-diphenhydramine] showed an IC50 (Histamine (H1); read-out: IC50) of 4120 nM, a Fold vs parent ([5]; Ki ratio, first run, n=2) of 62.5 and a Ki ([5]; first run, n=2 samples per data point) of 1890 nM.
With OCCOCCN1CCN(C(c2ccccc2)c2ccc(Cl)cc2)CC1 (stereo not drawn) [Hydroxyzine, reference compound] the “Normalized Brain Uptake Rate (Mean ± SD)” value (intact rat brain) was 355.89 ± 59.02 pmole/gm brain/sec.
For Cc1cc(=O)n(-c2ccccc2)n1C [Antipyrine], the “Normalized Brain Uptake Rate (Mean ± SD)” value (intact rat brain) was 17.4 ± 5.7 pmole/gm brain/sec.
With COCCOCCOCCOCCN(C)CCOC(c1ccccc1)c1ccccc1 [mPEG(4)-N-Diphenhydramine, mPEG4-N-diphenhydramine] the Fold vs parent [5, 17] was 12.7 and the Ki [5, 18] was 200 nM.
In the case of COCCOCCOCCOCCOCCOCCOCCN1CCN(C(c2ccccc2)c2ccc(Cl)cc2)CC1 (stereo not drawn) [PEG5-Hydroxyzine, mPEG5-Hydroxyzine], the IC50 (Histamine (H1); read-out: IC50) is reported as 76.7 nM and the Solubility (Solubility) is reported as “soluble”.
With COCCOCCOCCOCCOCCN1CCN(C(c2ccccc2)c2ccc(Cl)cc2)CC1 (stereo not drawn) [PEG3-Hydroxyzine, mPEG3-Hydroxyzine] the IC50 (Histamine (H1); read-out: IC50) was 105 nM and the Solubility (Solubility) was “soluble”.
For CN(C)CCOC(c1ccccc1)c1ccccc1 [Diphenhydramine, reference compound], the “flare response (visual scoring)” value ([7]; 0.01 mg/kg) was “protective effect of diphenhydramine begins to decrease”, the “flare response (visual scoring)” value ([7]; 0.03 mg/kg) was “still suppresses the response effectively” and the “percent decrease in the wheal response (change in wheal size)” value [7] was “approximately 40%”. The wheal size ([7]; all doses tested) was “clear dose-dependent reduction”, the “flare response (visual scoring)” value ([7]; highest concentrations) was “no detectable flare” and the “antihistamine efficacy (wheal size)” value [3] was “dose dependent reduction in wheal size”.
With COCCOCCOCCOCCOCCNC(=O)COCCN1CCN(C(c2ccccc2)c2ccc(Cl)cc2)CC1 (stereo not drawn) [PEG5-Cetirizine, mPEG5-Cetirizine] the Solubility (Solubility) was “soluble”.
In the case of COCCOCCOCCOCCOCCOCCN(C)CCOC(c1ccccc1)c1ccccc1 [mPEG(6)-N-Diphenhydramine, mPEG6-N-diphenhydramine], the IC50 ([1]; read-out: IC50 hERG channel, hERG current, HEK cells) is reported as 3790 nM, the “hepatic intrinsic clearance compared with diphenhydramine” value (hepatocytes) is reported as “faster than that of the parent diphenhydramine” and the “flare response (visual scoring)” value ([7]; 0.03 mg/kg) is reported as “flare responses begin to return”. For the same compound, the wheal size ([7]; 0.03 mg/kg) was “did not produce a detectable change in wheal size”, the “toxicity in first animal dosed” value ([7]; 1 mg/kg IV, rat) was “suffered convulsions and died” and the wheal size ([7]; 0.1, 0.3 mg/kg) was “reduced the size of the wheal compared with control injection”. The “percent decrease in the wheal response (change in wheal size)” value [7] was “approximately 25%”, the “flare response (visual scoring)” value ([7]; highest concentrations) was “no detectable flare” and the Brain concentration [2, 19] was 45.1 ± 4.4 ng/g. The Plasma concentration [2, 19] was 237.0 ± 41.1 ng/mL, the “metabolic breakdown compared with diphenhydramine” value (rat hepatocyte) was “slower metabolic breakdown than diphenhydramine” and the AUCinf ([4]; IV, 1 mg/kg DPH-equivalent) was 405 ng·h/mL. The CL ([4]; IV, 1 mg/kg DPH-equivalent) was 73.32 mL/min/kg, the Cmax ([4]; IV, 1 mg/kg DPH-equivalent) was 790 ng/mL and the “T ½” value ([4]; IV, 1 mg/kg DPH-equivalent) was 22.8 min. For the same compound, the Vss ([4]; IV, 1 mg/kg DPH-equivalent) was 1.91 L/kg, the “F (oral bioavailability)” value ([4]; oral 5 mg/kg vs IV 1 mg/kg) was 2.4% and the AUCinf ([4]; oral, 5 mg/kg DPH-equivalent) was 49.1 ng·h/mL. For the same compound, the Cmax ([4]; oral, 5 mg/kg DPH-equivalent) was 81.9 ng/mL, the “T ½” value ([4]; oral, 5 mg/kg DPH-equivalent) was 23.4 min and the Tmax ([4]; oral, 5 mg/kg DPH-equivalent) was 15 min. For the same compound, the “Half-Life (t1/2) (hepatocytes)” value (human hepatocytes; human hepatocytes, initial rate of loss of parent, n=1) was 122.9 min and the “metabolic breakdown / hepatic intrinsic clearance compared with diphenhydramine” value (human hepatocytes) was “faster than that of the parent diphenhydramine”.
For C=C[C@H]1C[N@@]2CC[C@H]1C[C@@H]2[C@@H](O)c1ccnc2ccc(OC)cc12 [quinidine], the QT (guinea pig hearts [8]) was “lengthened dramatically”.
For COCCOCCOCCOCCOCCN(C)CCOC(c1ccccc1)c1ccccc1 [mPEG5-N-diphenhydramine], the IC50 (Histamine (H1)) was 600 nM, the “Fold change (vs DPH)” value [2] was 28 and the Kp at 1 h [2] was 0.2 to 1. The concentration at 1 h ([2]; brain) was 97.9 ± 32.9 ng/g, the concentration at 1 h ([2]; plasma) was 415 ± 78.7 ng/mL and the “antihistamine efficacy (wheal size)” value [3] was “demonstrated efficacy, but toxicity occurs at same concentrations”. For the same compound, the “fold weaker than diphenhydramine” value ([3]; efficacy at diphenhydramine-equivalent target plasma concentrations) was at least 10 fold, the Coronary perfusion (guinea pig hearts [9]) was “increased dramatically” and the “QRS and PQ durations” value (guinea pig hearts [9]; guinea pig) was “increase only for 10^−5 M concentration”. It also gave an AUC(0-inf) [4, 11] of 391 ng·h/mL, a clearance [4, 11] of 69.5 mL/min/kg and a Cmax [4, 12] of 821 ng/mL. It also gave a half-life [4, 11] of 19.8 min, a Vd [4, 11] of 1.98 L/kg and a bioavailability [4, 13] of 1.5%. It also gave an AUC(0-inf) [4, 14] of 29.4 ng·h/mL, a Cmax [4, 15] of 53.6 ng/mL and a half-life [4, 14] of 22.8 min. The Tmax [4, 16] was 15 min, the half-life (in vitro) was 44.2 min and the “dromotropism (PQ and QRS)” value [10] was “greater negative dromotropism (lengthening of PQ and QRS) than diphenhydramine”. The “effect on coronary smooth muscle” value [10] was “vasodilatory effect”, the “ventricular repolarization (QT and QTc)” value [10] was “retard ventricular repolarization (QT and QTc) slightly more than diphenhydramine or quinidine” and the cardiodeceleration ([10]; 10^−5 M) was “greater cardiodeceleration”. The inotropism and lusitropism ([10]; 10^−5 M) was “striking positive inotropism and lusitropism”, the Fold vs parent [5] was 11.1 and 14.6 and the Ki [5] was 333 nM and 230 nM. For the same compound, the “metabolic breakdown / hepatic intrinsic clearance compared with diphenhydramine” value (human hepatocytes) was “moderately faster metabolic breakdown than diphenhydramine”.
Work on COCCOCCOCCN(C)CCOC(c1ccccc1)c1ccccc1 [mPEG(3)-N-Diphenhydramine, mPEG3-N-diphenhydramine] yielded a Fold vs parent [5, 17] of 7.8 and a Ki [5, 18] of 124 nM.
